Laboratory results taken from publication PMC11926880, “Procognitive Potential of Neuroprotective Triazine 5-HT6 Receptor Antagonists Tested on Chronic Activity In Vivo in Rats: Computer-Aided Insight into the Role of Chalcogen-Differences on the Pharmacological Profile” (ACS Chemical Neuroscience, 2025).
Where two headings read alike, the source gives them in different places.

Experiments:
[1] = design: method as in PMID 38190615, PMID 35228010; settings: cited from earlier work
SH-SY5Y cells [2] = assay: qRT-PCR of neurodegeneration-associated genes; type: cell-based, human; settings: 10 and 50 μM, 24 h
5-HT1AR = settings: read-out: radioligand binding assay Ki; cloned receptors; cited from earlier work
ABCB1 = test system: ABCB1; design: method as in PMID 35228010; settings: previous evidence; cited from earlier work
SH-SY5Y cells [3] = assay: MTS assay 72 h, neurotoxic effect; type: cell-based, human; settings: 10 and 50 μM
Description: SHSY5Y cells were grown in DMEM supplemented by 10% FBS, L-glutamine (2 mM), and penicillin (100u/mL)/streptomycin (100 μg/mL). The cell line was tested for mycoplasma using DAPI staining and the LookOut Mycoplasma PCR Detection Kit (MP0035, Merck). The cell line was authenticated after thawing by a morphology check, cell proliferation rate evaluation, and species verification by PCR. Bacteria contamination was excluded. […] Subsequently, cells were subjected to a CellTiter 96 AQueous One Solution Cell Proliferation Assay (Promega), according to the manufacturer’s protocol. The absorbance at 490 nm was evaluated to estimate the cell number.

rats [4] = settings: acute administration, male Wistar rats, (+)MK-801; cited from earlier work
rats [5] = assay: NORT after 21 day administration, discrimination index; type: in vivo, rat; settings: 21 days; for reversal of (+)MK-801-induced memory disturbances (DI): (+)MK-801 0.1 mg/kg
Description: Standard laboratory food (LSM-B) and filtered water as well as environment enrichment were freely available. Animals were randomly divided into treatment groups using a computer-based random order generator. All of the experiments were performed by two observers unaware of the treatment applied between 9:00 and 14:00 on separate groups of animals.
In the NOR test (NORT), rats were randomly divided into experimental groups (n = 8/group). […] All compounds were prepared immediately before administration and were injected intraperitoneally (i.p.) in a constant volume of 2 mL/kg. […] The control group received 1% Tween 80 on the same schedule.
The test was carried out according to the method described by Ennaceur.[46] NORT was conducted in two black-painted wood boxes (60 cm × 60 cm × 60 cm). A video camera mounted above the boxes recorded all experiments. Two days before the test, the rats were placed in the empty experimental boxes for 5 min as a habituation to the test area. On the third day, the test was performed in 2 trials lasting for 3 min at one-hour intervals. First session, familiarization (T1) with two identical objects (A1 and A2) located in the opposite corners of the boxes, approximately 10 cm from the walls, and second trial, recognition (T2) with one familiar (A) and one novel object (B). Metal cans and glass jars with sand were used as the objects. The boxes were cleaned and dried after each measurement. The exploration time (E) of the objects (such as looking, licking, sniffing, or touching while sniffing) during T2 was measured, and the discrimination index (DI) was calculated according to the following formula: DI = (EB – EA)/(EA + EB).
The normality of data distribution and the homogeneity of variance were checked using the Shapiro–Wilk’s test and Levene’s test, respectively. All behavioral results are shown as the means ± SEM.

HT-22 cell line [6] = assay: protection against Aβ1–42, cell membrane damage (ToxiLight); type: cell-based, mouse; settings: 10 μM pretreatment 1 h, Aβ1–42 35 μM 16 h
Description: Cells were cultured in Dulbecco’s modified Eagle’s Medium-high glucose (DMEM, GlutaMAX ThermoFisher) supplemented with 10% inactivated fetal bovine serum heat (Thermo Fisher), 100 IU/mL penicillin (Merck), and 100 μg/mL streptomycin (Merck). Cells were cultured in flasks (area 175 cm^2, Nunc) and incubated at 37 °C, 5% CO2. To measure the neuroprotective effect against Aβ1–42, cells were placed in a 96-well culture plate (5 × 10^3 cells per well, Falcon). To measure the toxicity of tested compounds, cells were placed in a 96-well culture plate (5 × 10^3 and 2 × 10^4 cells per well, Falcon).
Stock solutions were prepared at a concentration of 10 mM for the tested compounds. A minimum of 1 mg of each tested compound was weighed and dissolved in an appropriate volume of dimethyl sulfoxide (DMSO). Serial dilutions were prepared in DMSO, and then, the diluted compounds were transferred to phosphate-buffered saline (PBS), mixed, and put into a medium with adherent cells. Before the assays, eventual precipitation or opalescence was checked. […]
Then, 20 μL of adenylate kinase detection reagent was added. The luminescence was measured after 10 min of incubation with a plate reader, POLARstar Omega (BMG Labtech). The results are expressed as a percentage of the control (Aβ1–42), corresponding to the percentage of dead cells concerning the control sample.

NRF2 = assay: Western blot for NRF2 (total and nuclear extracts); type: cell-based, human; settings: 10 μM, 24 h
SH-SY5Y cells [7] = assay: MTS cell viability assay 27 h; type: cell-based, human; settings: for IC50: SH-SY5Y
Description: This study used the human neuroblastoma cell line SH-SY5Y (ATCC no. CRL-2266) to investigate the effect on the neuronal cells. The cells (8 × 10^3 cells/100 μL/well) were seeded in transparent 96-well plates (Thermo Scientific, Nunc, no. 161093) in DMEM/F12 (Gibco, no. 11039021) supplemented with 10% FBS (Gibco, no. 10500-064) and cultured overnight. […] Treatment with the compounds was performed for 27 h. After incubation, the cell viability was examined using an MTS-based CellTiter96 AQueous One Solution Cell Proliferation Assay (Promega, Madison, WI, USA) following the manufacturer’s protocol. Briefly, 20 μL of MTS solution was pipetted into each well containing 100 μL of culture or culture medium (negative control) and incubated at 37 °C for 1 h. The absorbance was measured at 490 nm using a Tecan Spark’s multimode plate reader (Tecan, Männedorf, Switzerland). A reference wavelength of 630 nm was used to subtract the background.

HT-22 cell line [8] = assay: protection against Aβ1–42, ROS (CellROX); type: cell-based, mouse; settings: 10 μM pretreatment 1 h, Aβ1–42 35 μM 16 h
Description: Cells were cultured in Dulbecco’s modified Eagle’s Medium-high glucose (DMEM, GlutaMAX ThermoFisher) supplemented with 10% inactivated fetal bovine serum heat (Thermo Fisher), 100 IU/mL penicillin (Merck), and 100 μg/mL streptomycin (Merck). Cells were cultured in flasks (area 175 cm^2, Nunc) and incubated at 37 °C, 5% CO2. To measure the neuroprotective effect against Aβ1–42, cells were placed in a 96-well culture plate (5 × 10^3 cells per well, Falcon).
Stock solutions were prepared at a concentration of 10 mM for the tested compounds. A minimum of 1 mg of each tested compound was weighed and dissolved in an appropriate volume of dimethyl sulfoxide (DMSO). Serial dilutions were prepared in DMSO, and then, the diluted compounds were transferred to phosphate-buffered saline (PBS), mixed, and put into a medium with adherent cells. Before the assays, eventual precipitation or opalescence was checked.
Aβ1–42 (Merck) was initially dissolved in 1,1,1,3,3,3- hexafluor-2-propanol (Merck). […] After this time, the Aβ1–42 solution was evaporated by using nitrogen gas. Next, DMSO was added to obtain a 2 mM stock solution of β-amyloid. […]
After the end of incubation with the tested compounds, the supernatant was removed, and cells were incubated with CellROX (5 μM) in DMEM FluoroBrite (ThermoFisher) for 1 h at 37 °C. The results are expressed as a percentage of control (Aβ1–42).

[9] = design: method as in PMID 38190615, PMID 35228010; settings: AMES test; cited from earlier work

## CN1CCN(c2nc(N)nc(C(C)(C)Sc3ccc4ccccc4c3)n2)CC1 [WA-22, 4-(4-methylpiperazin-1-yl)-6-(2-(naphthalen-2-ylthio)propan-2-yl)-1,3,5-triazin-2-amine]
[1]
  permeability PAMPA Pe: 13.8 × 10^–6 cm/s
SH-SY5Y cells [2]
  NRF2 transcription: neither WA-22 nor PPK-32 were able to stimulate its transcription
  expression of NQO1, SOD1, and HO1: induces the expression of the same genes, although with a lower significance and increase
  expression of pro-inflammatory gene NFkB: neither WA-22 nor PPK-32 were able to downregulate
5-HT1AR
  Ki: 2.29 µM
ABCB1
  ABCB1 inhibition: potent inhibitor of ABCB1
SH-SY5Y cells [3]
  neurotoxic effect (MTS): no significant differences
Rats [4]
  memory-protective action at doses as low as: 0.3 mg/kg
Rats [5]; 1 mg/kg/day i.p., without (+)MK-801
  influence on memory compared to vehicle-treated rats (DI): No memory changing
Rats [5]; 1 mg/kg/day i.p.
  reversal of (+)MK-801-induced memory disturbances (DI): significantly reversed
Rats [5]; 3 mg/kg/day i.p.
  reversal of (+)MK-801-induced memory disturbances (DI): also observed for a dose of 3 mg/kg, but memory restoration was not at the same level as that of control rats
HT-22 cell line [6]
  protection of cell integrity against membrane destruction caused by Aβ1–42: neuroprotective activities
NRF2; GAPDH loading control
  NRF2 protein amount (total extract): protein amount was not modulated
NRF2; nuclear extracts, H3 loading control
  NRF2 translocation from cytoplasm to nucleus: effectively induce a shuffling of this protein inside the nucleus
SH-SY5Y cells [7]; Homo sapiens, 27 h, read-out: IC50 x̅ ± SD, MTS, SH-SY5Y, 27 h of exposure
  IC50: > 200 µM
SH-SY5Y cells [7]; all tested concentrations (0–50 μM), 27 h
  effect on cell viability: did not affect cell viability
SH-SY5Y cells [7]; read-out: IC50 x̅ ± SD, MTS, 27 h of exposure
  IC50: 238 ± 15 µM
HT-22 cell line [8]
  decrease of ROS induced by Aβ: only PPK-32 displayed the ability to decrease ROS
[9]
  mutagenic: no
